Read-outs that look alike come from different tables or passages of the source.

One may read the IC50 as the concentration needed to halve the response being measured.

Data set [1] in a line: Plasma protein binding rate (equilibrium dialysis). It is filed as in vitro ADME, mouse. The note with it: pH 7.4. As for the experimental part: The protein binding rates of the compounds of the present disclosure in human and mouse plasma were determined by the following experimental method.
• 1. Human plasma (BioIVT), CD-1 mouse plasma (BiolVT) • 2. Na2HPO4 (Sigma S5136-500G) • 3. NaH2PO4 (Sigma 53139-500G) • 4. NaCl (Sigma S5886-IKG) • 5. 96-well equilibrium dialysis plate (HTDialysis LLC, Gales Ferry, CT, HTD96B) and equilibrium dialysis membrane (MWCO 12-14K, 1101) • 6. Positive control compound warfarin • 7. ABI QTrap 5500 liquid chromatography-mass spectrometry
• 1. Preparation of a buffer with a concentration of 100 mM sodium phosphate and 150 mM NaCl: An alkaline solution with a concentration of 14.2 g/L Na2HPO4 and 8.77 g/L NaCl was prepared with ultrapure water, and an acidic solution with a concentration of 12.0 g/L NaH2PO4 and 8.77 g/L NaCl was prepared with ultrapure water. Then the alkaline solution was titrated to pH 7.4 with the acidic solution to prepare a buffer with a concentration of 100 mM sodium phosphate and 150 mM NaCl. • 2. Preparation of dialysis membrane: The dialysis membrane was soaked in ultrapure water for 60 min to separate the membrane into two pieces, then soaked in 20% ethanol for 20 min, and finally soaked in a buffer used for dialysis for 20 min. • 3. Preparation of plasma: The frozen plasma was quickly thawed at room temperature, and then centrifuged at 3220 g for 10 min at 4° C. to remove clots, and the supernatant was collected into a new centrifugal tube. The pH of the plasma was determined and recorded, and the plasma with pH of 7-8 was used. • 4. Preparation of compound-containing plasma samples: The 10 mM stock solution of the compound of the present invention or the positive control compound was diluted with DMSO to obtain a 200 μM working solution. To 597 μl of human or mouse plasma was added 3 μl of 200 μM compound working solution to obtain a plasma sample with a final concentration of 1 μM. • 5. […]
The peak areas of the compound on the buffer side and the plasma side were determined. […]
A general note: In equilibrium dialysis only unbound substance equilibrates across the membrane.

Data set [2] has as its target hERG potassium ion channel (Homo sapiens (Human), UniProt Q12809). The experiment in a line: hERG inhibitory activity (automated patch clamp, CHO cell line stably expressing hERG). Type of data set: cell-based. How it is done:
The inhibition of hERG activity by the compounds of the present disclosure was determined by the following experimental method.
A CHO cell line stably expressing hERG ion channel was purchased from B′SYS GmbH (Switzerland). The cells were cultured in F-12 (HAM) medium containing 10% FBS buffer, 100 U/mL penicillin-streptomycin, 100 μg/mL hygromycin and 100 μg/mL G418. Trypsin substitute TrypLE™ Express was used for digestion and passage, passaging three times per week and maintaining about 80% confluence.
Iii. Preparation of Intracellular/Extracellular Fluid and Preparation of Solution of Compound to be Tested
• 1) NMDG 60 standard extracellular fluid: 80 mM sodium chloride, 60 mM NMDG, 4 mM potassium chloride, 2 mM calcium chloride, 1 mM magnesium chloride, 5 mM polyglucose, 10 mM HEPES, pH adjusted to 7.4 with HCl, osmotic pressure 289 mOsm/kg; • 2) NMDG 60 cell sealing solution: 80 mM sodium chloride, 60 mM NMDG, 4 mM potassium chloride, 10 mM calcium chloride, 1 mM magnesium chloride, 5 mM polyglucose, 10 mM HEPES, pH adjusted to 7.4 with HCl, osmotic pressure 313 mOsm/kg; • 3) Chip filling solution: 140 mM sodium chloride, 4 mM potassium chloride, 5 mM polyglucose, 10 mM HEPES, pH adjusted to 7.4 with NaOH, osmotic pressure 289 mOsm/kg; • 4) Standard extracellular fluid: 140 mM sodium chloride, 4 mM potassium chloride, 2 mM calcium chloride, 1 mM magnesium chloride, 5 mM polyglucose, 10 mM HEPES, pH adjusted to 7.4 with NaOH, osmotic pressure 298 mOsm/kg.
KF110 intracellular fluid: 10 mM EGTA, 10 mM HEPES, 10 mM potassium chloride, 10 mM sodium chloride, 110 mM potassium fluoride, pH adjusted to 7.2 with KOH, osmotic pressure greater than 280 mOsm/kg.
• 1) The compound to be tested was dissolved in DMSO and prepared into a stock solution with a final concentration of 10 mM. • 2) The stock solution was subjected to gradient dilution with DMSO as a solvent at a ratio of 1:3 into solutions with other three intermediate concentrations (mM): 3.33, 1.11 and 0.37, respectively. • 3) Before the start of the experiment, the gradient solution of the compound to be tested was diluted again with the extracellular fluid according to a ratio of 1:500 into a series of working solutions with final concentrations of: 20, 6.66, 2.22 and 0.74 (μM), respectively, while the 60 μM working solution was diluted from 10 mM stock solution according to a ratio of 3:500. […]
In general terms: Block of hERG is tested as a sign of cardiac risk.

Where [3] appears, read: CD-1 mouse plasma, 1 μM, equilibrium dialysis 6 h, 37° C., read-out: % Mouse plasma protein binding rate (converted).

Chain of hERG potassium ion channel (Q12809 whole entry): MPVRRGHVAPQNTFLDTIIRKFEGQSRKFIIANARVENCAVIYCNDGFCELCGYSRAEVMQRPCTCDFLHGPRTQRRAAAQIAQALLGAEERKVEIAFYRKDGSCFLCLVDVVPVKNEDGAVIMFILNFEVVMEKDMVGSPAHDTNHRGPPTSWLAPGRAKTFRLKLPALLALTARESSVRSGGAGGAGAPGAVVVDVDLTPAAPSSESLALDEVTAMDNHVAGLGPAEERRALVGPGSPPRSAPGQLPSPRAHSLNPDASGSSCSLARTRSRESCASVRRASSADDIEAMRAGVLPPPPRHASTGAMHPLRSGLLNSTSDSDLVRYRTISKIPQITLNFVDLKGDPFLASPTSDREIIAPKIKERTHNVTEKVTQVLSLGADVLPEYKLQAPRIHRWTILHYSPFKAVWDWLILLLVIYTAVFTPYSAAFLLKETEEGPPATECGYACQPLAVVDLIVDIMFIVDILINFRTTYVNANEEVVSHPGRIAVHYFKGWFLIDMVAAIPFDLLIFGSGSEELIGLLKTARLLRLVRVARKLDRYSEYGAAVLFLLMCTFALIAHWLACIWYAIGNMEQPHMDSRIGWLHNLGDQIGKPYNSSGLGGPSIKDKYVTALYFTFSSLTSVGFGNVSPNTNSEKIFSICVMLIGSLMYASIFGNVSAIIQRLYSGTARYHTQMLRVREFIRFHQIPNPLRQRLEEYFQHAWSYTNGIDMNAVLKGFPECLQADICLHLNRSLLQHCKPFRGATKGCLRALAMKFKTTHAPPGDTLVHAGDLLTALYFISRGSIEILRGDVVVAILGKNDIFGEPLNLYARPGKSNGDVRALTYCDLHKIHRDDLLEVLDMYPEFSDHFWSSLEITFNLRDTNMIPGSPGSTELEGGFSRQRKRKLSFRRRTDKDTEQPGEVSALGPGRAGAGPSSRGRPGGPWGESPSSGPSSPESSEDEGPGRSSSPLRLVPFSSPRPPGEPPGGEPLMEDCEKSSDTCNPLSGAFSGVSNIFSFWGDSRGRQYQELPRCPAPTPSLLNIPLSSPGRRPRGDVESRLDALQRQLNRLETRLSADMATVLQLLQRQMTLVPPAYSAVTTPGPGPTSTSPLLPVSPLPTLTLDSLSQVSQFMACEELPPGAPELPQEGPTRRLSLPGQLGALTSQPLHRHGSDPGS

For the compound `CC[C@@]1(O)C(=O)OCc2c1cc1n(c2=O)Cc2c-1nc1cc3c(cc1c2CNC(=O)C(O)C1CC1)OCO3` (single isomer, unassigned) [Compound 14-P1], in data set [1] (setting [3]), the fraction unbound at 6 h, 1 μM was 0.363. In addition, the IC50 in data set [2] is greater than 30 µM.
Consider `CC[C@@]1(O)C(=O)OCc2c1cc1n(c2=O)Cc2c-1nc1cc3c(cc1c2CNC(=O)C(O)C1CC1)OCO3` (single isomer, unassigned) [Compound 14-P2], for which the half-inhibitory concentration (IC50) in data set [2] (read-out: hERG potassium ion channel inhibitory activity IC50, CHO-hERG, SyncroPatch 384i, 0.37-30 μM) is greater than 30 µM.
`CC[C@@]1(O)C(=O)OCc2c1cc1n(c2=O)Cc2c-1nc1cc3c(c(F)c1c2CNC(=O)[C@@H](O)C1CC1)OCO3` (single isomer, unassigned) [Compound 37-P1] gave a fraction unbound at 6 h, 1 μM in data set [1] (CD-1, mouse, plasma) of 0.327. Also, the IC50 in data set [2] is greater than 30 µM.
Consider `[2H]C1([2H])Oc2cc3nc4c(c(CNC(=O)C(O)C5CC5)c3cc2O1)Cn1c-4cc2c(c1=O)COC(=O)[C@]2(O)CC` (stereo partly drawn) [Compound 39, 2-cyclopropyl-N-(((S)-7-ethyl-7-hydroxy-8,11-dioxo-7,8,11,13-tetrahydro-10H-[1,3]dioxolo[4,5-g]pyrano[3′,4′:6,7]indolizino[1,2-b]quinolin-14-yl-2,2-d2)methyl)-2-hydroxyacetamide], for which, in data set [1] (setting [3]), the fraction unbound at 6 h, 1 μM was 0.342. Besides, the IC50 in data set [2] was greater than 30 µM.

For the origin of these results see patent US20250270227A1, “CAMPTOTHECIN DERIVATIVE, AND PHARMACEUTICAL COMPOSITION AND USE THEREOF” (SIMCERE ZAIMING PHARMACEUTICAL CO., LTD., priority 2021, published 2025).
